For one assay, the system named is APN. Briefly: Pathway inhibitor screen on PM-induced APN degradation in ST cells (western blot). In kind it is cell-based, porcine. The settings on record: PM 10 mM, 16 h, 3-MA 20 mM. On the procedure:
Fig 6 PM degrades APN by autophagy-lysosome pathway. (A) ST cells were treated with PM (10 mM) and infected with TGEV (0.1 MOI) in the presence and absence of MG132 (20 µM), 3-MA (20 mM), and Z-VAD-FMK (20 µM) for 16 h. The APN expression and TGEV N were detected by western blot. (B) ST cells were treated with PM (10 mM) at 2, 4, 8, and 16 h, autophagy markers P62 and LC3, and APN were measured by western blot. (C) ST cells were transfected with RFP-EGFP-LC3B for 12 h and then treated with PM (10 mM) or H2O for 36 h. The fluorescence of GFP and RFP was detected by confocal microscopy, scale bar: 5 µm. (D) Quantification of autophagosomes (Merge) and autolysosomes (RFP) from C using Image J software. (E) ST cells were treated with PM or H2O for 24 h. The autophagosomes (yellow arrow) and autolysosomes (asterisk) were detected by transmission electron microscope, scale bar: 2 µm. (F) The number of autophagosomes (yellow arrow) and autolysosomes (asterisk) was quantified. All western blot results were calculated by Image J. Results are presented as mean ± SD of data from three independent experiments. ***, P ≤ 0.001.
Fig 7 PM degrades APN expression via activating PIK3C3-mediated autophagy. (A) Graphical representation for autophagy and the targets of different autophagy inhibitors. (B) ST cells were treated with PM (10 mM) in the presence and absence of 3-MA (20 mM), SBI0206965 (20 µM), and 3BDO (30 µM) for 16 h, and the APN expression was detected by western blot. (C) ST cells were treated with PM (10 mM) in the presence and absence of 3-MA (20 mM) for 16 h, and the APN, PIK3C3, ATG14, BECN1, P62, and LC3 were measured by western blot. (D) ST cells were transfected with PIK3C3 siRNA-1, PIK3C3 siRNA-2, PIK3C3 siRNA-3, PIK3C3 siRNA-4, and NC siRNA for 24 h, the PIK3C3 expression was detected by western blot. (E) ST cells were transfected with PIK3C3 siRNA-4 or NC siRNA for 24 h and then treated with PM (10 mM) for 16 h. The APN, PIK3C3, ATG14, BECN1, P62, and LC3 were detected by western blot. (F) Sequencing diagram for WT ST cells and PIK3C3 KO ST cells. (G) PIK3C3 was detected by western blot in WT ST cells and PIK3C3 KO ST cells. (H) WT ST cells and PIK3C3 KO ST cells were treated with PM (10 mM) for 16 h and then the APN, PIK3C3, ATG14, BECN1, P62, and LC3 were detected by western blot. (I) WT ST cells and PIK3C3 KO ST cells were transfected with pCMV-Myc and pCMV-Myc-PIK3C3, respectively, for 24 h and treated with PM (10 mM) for 16 h. The APN, PIK3C3, P62, and LC3 were detected by western blot. All western blot results were calculated by Image J. All experiments were performed in triplicate.
On the technique in general: In western blotting, separated proteins are transferred to a membrane and probed.

A further assay concerns TGEV Miller. Briefly: TGEV infection of ST cells (RT-qPCR, TCID50, western blot, IFA). In kind it is cell-based, transmissible gastroenteritis virus. The settings on record: TGEV Miller 0.1 MOI, indicated concentrations, 1 h pretreatment and 17 h. Here is the method:
Fig 1 PM inhibits TGEV and PRCV infection in ST cells. (A) A cytotoxicity assay of PM in ST cells. ST cells cultured in a 96-well plate were incubated with different concentrations of PM for 24 h, which was tested by Cell Counting Kit 8. (B) Time course for PM inhibiting TGEV or PRCV or PEDV infection assay. (C–F) The ST cells, pretreated with PM at the indicated concentrations for 1 h were infected with TGEV Miller (0.1 MOI) or PRCV (0.1 MOI) for 1 h and were again treated with PM at 37°C for 17 h. The cell samples were collected and examined by real-time quantitative PCR (RT-qPCR), TCID50, western blot (C and D), and immunofluorescence assay (IFA) (E and F), scale bar: 50 µm. (G) Vero-E6 cells were treated with indicated PM and infected with PEDV LJX 01/2014 according to the time course of Fig. 1B, which was detected by TCID50 and western blot. Results are presented as mean ± SD of data from three independent experiments. ns, no significant; **, P ≤ 0.01; ***, P ≤ 0.001.
Fig 3 PM inhibits TGEV and PRCV infection by potassium ion and molybdate synergy. […] The cell samples were measured by RT-qPCR. (C and D) ST cells were treated with PM (K2MoO4, 10 mM), KCl (20 mM), Na2MoO4 (10 mM), sodium chloride (NaCl, 10 mM), K2MoO4 (10 mM), and NaCl (20 mM) as well as Na2MoO4 (10 mM) and KCl (20 mM) for 1 h and then infected with TGEV Miller (0.1 MOI) or PRCV (0.1 MOI) for 17 h, which was determined by RT-qPCR and TCID50. […]
Total RNA was extracted using RNAiso reagent (TaKaRa, Japan, 9109) and reverse transcribed into cDNA using HiScript Q RT SuperMix for qPCR (Vazyme, China, R223-01), both of which followed the manufacturer’s recommendations. The TGEV and PRCV virus copy numbers were detected by the TaqMan probe-based RT-qPCR method developed previously in our laboratory ([59]). Relative qPCR was also performed using ChamQ SYBR qPCR master mix (Vazyme, China, Q311-02), and the results were calculated via the 2^-ΔΔCT method.
Background: In qPCR the cycle at which signal appears reflects the starting amount.

Setting [1] is: no virus, SBI0206965 20 µM, 3BDO 30 µM.

For `Cn1cnc(N)c2ncnc1-2` [3-MA, 3-Methyladenine], the “reversal of PM-induced APN degradation” value is “reversed the changes in APN expression” in the assay with APN (setting [1]) and “reversed” with APN (TGEV 0.1 MOI, MG132 20 µM, Z-VAD-FMK 20 µM).
In the case of `O=C1OC(COc2ccccc2[N+](=O)[O-])CC1Cc1ccccc1` (stereo not drawn) [3BDO], the “reversal of PM-induced APN degradation” value with APN (setting [1]) is listed as “cannot abolish the degradation of APN”.
The same measure, in the same setting: with `CNC(=O)c1ccccc1Oc1nc(Nc2cc(OC)c(OC)c(OC)c2)ncc1Br` [SBI0206965] the entry was “cannot abolish the degradation of APN”.
Consider `[Cl-].[K+]` [potassium chloride], for which the “TGEV infection, single salt” value in the assay on TGEV Miller was “neither potassium chloride nor sodium molybdate was able to suppress TGEV infection”.
Consider `[Na+].[Na+].[O]=[Mo](=[O])([O-])[O-]` [sodium molybdate], for which the “TGEV infection, single salt” value with TGEV Miller is given as “neither potassium chloride nor sodium molybdate was able to suppress TGEV infection”.

The values are drawn from publication PMC11784013, “Potassium molybdate blocks APN-dependent coronavirus entry by degrading receptor via PIK3C3-mediated autophagy” (Journal of Virology, 2024).
